Measured values as given in publication PMC11483813, “Bombesin-Targeted Delivery of β-Carboline-Based Ir(III) and Ru(II) Photosensitizers for a Selective Photodynamic Therapy of Prostate Cancer” (Inorganic Chemistry, 2024).

Legend:
[1] = Photocatalytic singlet oxygen generation (ABDA probe); type: physicochemical; details: H2O:DMSO (1:1), blue light 460 nm, rose bengal as reference
Description: Singlet oxygen is thought to be the main cytotoxic species in type II PDT processes. Therefore, we determined the ability of Ir-Me and Ru-Me to generate ^1O2 under photocatalytic conditions, as illustrative examples of our PSs. As shown in Figures 6 and S51, we monitored by means of UV–vis spectroscopy the oxidation of 9,10-anthracenediyl bis(methylene)dimalonic acid (ABDA, 8x 10^–5 M) in the presence of atmospheric oxygen, using Ir-Me (10^–5 M) as the PS and H2O:DMSO (1:1) as the solvent system under blue light exposure (λir = 460 nm). […] Moreover, the singlet oxygen quantum yield values (ΦΔ) of Ir-Me and Ru-Me were determined using rose bengal (ΦΔ = 0.75) as the reference. […]
an integrating sphere. For the determination of the luminescence lifetime, the fluorescence decay was measured on a FLS980 spectrofluorometer equipped with a TSCPC laser (Ir(III) complexes: λ ex = 405 nm; Ru(II) complexes: λ ex = 450 nm) and a REDPMT detector. The F980 spectrometer operating software was used to collect and process luminescence lifetime data.
Photostability of Ir(III) and Ru(II) complexes. The photostability of Ir(III) or Ru(II) complexes was monitored by 1H RMN. […]
Singlet oxygen generation. The capacity of Ir-Me and Ru-Me to generate singlet oxygen ( 1O2) was determined by an indirect method using 9,10-anthracenediyl-bis(methylene) dimalonic acid (ABDA) as a probe. […]

PC-3 cells = assay: Apoptosis assay, annexin V/propidium iodide; type: cell-based, human; details: five times IC50,light, photoactivated, 24 h
Method: Mitochondria play an important role in the regulation of apoptosis. Alterations in the MMP can cause the release of apoptotic factors, such as cytochrome c, which activates the caspase cascade, leading to programmed cell death.[66],[67] In order to elucidate whether the toxic effect of the compounds at the mitochondrial level triggers cell death by apoptosis, a dual annexin V/propidium iodide labeling experiment was performed. The initial stages of apoptosis are characterized by alterations in the symmetry of phospholipids in the cytoplasmic membrane, which can be detected using annexin V (An). The late stages also include disruption of the cell membrane, permitting the penetration of propidium iodide (PrI), which emits red fluorescence when bound to DNA. […]
Figure 13 Cell death mechanism. […] After 24 h, the percentage of viable, necrotic, early apoptotic, and late apoptotic cells was analyzed by flow cytometry using propidium iodide and annexin V staining. […]
PC-3 cells were seeded into 12-well plates at a density of 100000 cells/well. […] The samples were immediately analyzed using a Novocyte flow cytometer. Annexin-FITC staining was detected at a wavelength of 520 nm, and propidium iodide was detected at 617 nm. The fluorescence emission of 10000 cells per sample was measured, and the percentages of live, early apoptotic, late apoptotic, and necrotic cell populations were determined.

singlet oxygen quantum yield (ΦΔ) [1]: 4%
Structure (SMILES): COC(=O)/C=C/c1ccc(-c2nccc3c4ccccc4n(C)c23)nc1.[Cl-].[Ir+3].[c-]1ccccc1-c1ccccn1.[c-]1ccccc1-c1ccccn1 [Ir-Me]
cells in early apoptosis (PC-3 cells): 11.9% | cells in late apoptosis (PC-3 cells): 41.7%
